Measurements from US20170273906A1, “TARGETED LIPOSOMES ENCAPSULATING IRON COMPLEXES AND THEIR USES” (Ramot at Tel-Aviv University Ltd., priority 2014, published 2017).

Experiments:
[1] = system: LPS-activated RAW264.7 cells; test: In vitro viability assay (XTT/SRB), LPS-activated macrophages; assay type: cell-based, mouse; conditions: hemin dose of 50 μg/ml and liposome dose of 4 mM lipid, 24 hours, XTT; FIG. 7
Method: I. RAW264.7 cells were seeded onto 96 well plates, and the experiments were initiated 24 hours later, at semi-confluency. The regular (serum supplemented) cell growth media was replaced by the same media but containing one of the following treatments: free hemin, drug-free RL-MLV, HA-MLV, hemin-encapsulating RL-MLV and hemin-encapsulating HA-MLV. Wells receiving the regular cell growth media without any addition served as controls. Incubation time was 24 hours, at the end of which the experiment was terminated and cell viability was determined by the XTT or SRB methods. Both methods yielded similar results.
Cell viability was determined using XTT method. […] In addition, cell viability was also determined by the SRB method, which is independent of mitochondrial enzymes (results not shown). Both methods gave similar results.

NCI/ADR-Res = test: Cell viability (XTT and SRB), NCI/ADR-Res; assay type: cell-based, human; conditions: 24 hours
Method: (§1) For evaluating the effect of Hemin/HA-L on cancer cells, the liposomes prepared as described above were used. The only difference was in the amount of dry liposome forming lipid powder used in the “cancer aspect”. Specifically, in the following anti-cancer aspect, for rehydration of the hemin, higher amounts of the powder were used to reach a liposome concentration of 10-20 mM lipid.
(§2) The impact of hemin/HA-L at high liposome concentrations on cell viability was tested on five cell lines and compared to the same dose of free hemin, as well as to the same liposomal dose of drug-free HA-L.
(§3) Three of the cell lines originated from human cancers: MDA-MB-231 and MCF-7 from breast cancer and NCI/ADR-Res (abbreviated to NAR) from ovarian cancer. The RAW264.7 cell line is from mouse peritoneal macrophages, and the COS-7 cell line is noncancerous. […] MCF-7 is known to be sensitive to chemotherapeutic drugs, whereas NAR is known to be highly resistant to chemotherapeutic drugs, in the multi-drug resistant mechanism operating by the extrusion pumps of the ABC superfamily of transporters.
(§4) The Results of treating the five cell lines with hemin/HA-L, hemin, drug-free HA-L or control (i.e. untreated) for 24 hours, are shown in Tables 2 and 3, for hemin doses (free or liposomal) of 25 μg/ml and 50 μg/ml, respectively. Cell viability was evaluated by two independent methods: XTT and SRB.
(§5) To this end, NCI/ADR-Res (NAR) cells were first tested with drug-free regular liposomes and drug-free HA-L, at three liposome doses—4 mM, 10 mM, and 21 mM—lipid, with untreated cells serving as controls. The experiments were performed in 24-well plates, treatment was for 24 hours, and upon termination the active intracellular HO-1 was determined using a commercial kit and following the kit's instructions. Parallel wells were used to evaluate cell viability using the SRB method. The results are presented in FIG. 14 (average of 6 wells; Statistical significance was evaluated by student t test (two tail, unequal variance) for RL vs. control and for HA-L vs. control. *p<0.05, **p<0.003, ***p<0.0001).

peritoneal macrophages = test: Peritoneal macrophage profile following injection after MI (FACS); assay type: in vivo, mouse; conditions: IP one day after MI, three days later
Text: (§6) Twelve week-old female Balb/C mice (20 gr.) were anesthetized with 2% isoflurane, and were surgically opened by left thoractomy through the fourth intercostal space to expose the beating heart. To induce MI, the left main coronary artery was permanently occluded with an intramural suture.
To determine liposomal hemin effect on peritoneal and cardiac macrophages, hemin was formulated in HA-L. Hemin encapsulation efficiency was ˜100% at therapeutic dose levels. Mice were allocated with hemin/HA-L (2 mg hemin/kg body and 50 mg lipid/kg body), empty liposomes (HA-targeted, 50 mg lipid/kg body), free hemin (2 mg/kg body) or saline (100 μl) by intra-peritoneal injection one day after MI. Three days later, mice were euthanized and peritoneal macrophages were aspirated from abdominal cavity. Cells were counted and stained with an anti-mouse F4/80 (as general macrophage marker) and with either PE-conjugated anti-mouse CD86 (as M1 marker) or FITC-conjugated anti-mouse mannose receptor (CD206; as M2 marker). Cells were analyzed by FACS Calibur cytometer using CellQuest™ software.
Following hemin/HA-L (2 mg hemin/kg body and 50 mg lipid/kg body) injection into mice peritoneum (IP), macrophages from the abdominal cavity were isolated and analyzed by flow cytometry.

MDA-MB-231 = test: Cell viability (XTT and SRB), MDA-MB-231; assay type: cell-based, human; conditions: 24 hours
Method: as §1, §2, §3, §4

NAR xenografts = test: Mouse tumor model, tumor volume; assay type: in vivo; conditions: tail vein, 3 injections a week apart; 2 mpk hemin and/or 125 mpk lipid; follow up two weeks after last injection; FIG. 17B
Method: The experimental details and design were as follows: Hsd:Athymic Nude Foxn1nu female mice (8 weeks old, 25 gr.) were inoculated with NAR cells (6.5*10^6 cells/100 μl HBSS), to the flank. Treatment was initiated at tumor volumes of 150-180 mm^3. There were three treatment groups and in all three the solvent was HBSS: (1) mice injected with drug-free HA-L^hi at the dose of 125 mpk lipid. (2) mice injected with free hemin at the dose of 2 mpk and (3) mice injected with hemin/HA-L^hi at the respective doses of 2 mpk (hemin) and 125 mpk (lipid). The injections were to the tail vein, and the injection volume was 200 μl. Each mice was given 3 injections spaced a week apart. Follow up was by animal weight and tumor volume (measured by caliper), up to two weeks after the last injection.

HO-1 [2] = test: Intracellular concentration of active HO-1 in NAR cells (commercial kit); assay type: cell-based, human; conditions: hemin 25 μg/ml (free, or encapsulated in 2 mM lipid), 24 hours; FIG. 15
Method: as §5, with “The” for “To this end, NCI/ADR-Res (NAR) cells were first tested with drug-free regular liposomes and drug-free HA-L, at three liposome doses—4 mM, 10 mM, and 21 mM—lipid, with untreated cells serving as controls. The”
In both cases, as also shown in FIG. 15, cell viability (line crossing open circles) was intact.

[3] = system: LPS stimulated RAW264.7 macrophages; test: TNF-α secretion from LPS stimulated macrophages; assay type: cell-based, mouse; conditions: hemin dose of 50 μg/ml, FIG. 1C
Method: III. Further, the effect of hemin/HA-LP on TNF-α secretion levels from LPS stimulated RAW264.7 macrophages, on IL-12 cytokine secretion from peritoneal macrophages stimulated with LPS for 24 hours, and expression of HO-1 expression were measured. In addition, the effect of hemin/HA-L on macrophage inflammatory and anti-inflammatory properties was evaluated. First, TNF-α secretion levels from LPS stimulated RAW264.7 macrophages was measured (FIG. 1C, “LP” denoting liposome). […] Next, mouse peritoneal macrophages were stimulated with LPS for 24 hours. After LPS removal, the cells were treated with either hemin/HA-LP, empty HA-LP, free hemin or saline. […] The anti-inflammatory activity of hemin was evaluated in vitro, in the established cell line of mouse peritoneal macrophages RAW264.7. Anti-inflammatory treatment was measured by reduction in secretion of the pro-inflammatory cytokine TNF-α, in LPS-activated macrophages.

HO-1 [4] = test: HO-1 expression in LPS-activated macrophages; assay type: cell-based, mouse; conditions: LPS 24 hours, then three days in culture; FIG. 1E
Method: III. Further, the effect of hemin/HA-LP on TNF-α secretion levels from LPS stimulated RAW264.7 macrophages, on IL-12 cytokine secretion from peritoneal macrophages stimulated with LPS for 24 hours, and expression of HO-1 expression were measured. In addition, the effect of hemin/HA-L on macrophage inflammatory and anti-inflammatory properties was evaluated. First, TNF-α secretion levels from LPS stimulated RAW264.7 macrophages was measured (FIG. 1C, “LP” denoting liposome). […] Next, mouse peritoneal macrophages were stimulated with LPS for 24 hours. After LPS removal, the cells were treated with either hemin/HA-LP, empty HA-LP, free hemin or saline.

MCF-7 = test: Cell viability (XTT and SRB), MCF-7; assay type: cell-based, human; conditions: 24 hours
Method: as §1, §2, §3, §4

[5] = system: Mouse Model of Myocardial Infarction (MI); test: Histological analysis of infarct size (hematoxylin and eosin), 30 days after MI; assay type: in vivo; conditions: FIG. 13E
Text: as §6
The imaging results of treatment with Hemin/HA-L (FIG. 13A), free hemin (FIG. 13B), empty liposomes (FIG. 13C) and saline (FIG. 13D) were confirmed by histological analysis, 30 days after MI. […] Noticeably, empty liposomes and free hemin treatments were also associated with a decreased scar tissue (by 40% and 43%), compared with saline (FIG. 13E). Overall, the presented findings indicate that hemin/HA-L is a promising agent to modulate and resolve inflammation following MI by enhancing healing and repair processes.

COS-7 = test: Cell viability (XTT and SRB), COS-7; assay type: cell-based; conditions: 24 hours
Method: as §1, §2, §3, §4

RAW264.7 = test: Cell viability (XTT and SRB), RAW264.7; assay type: cell-based, mouse; conditions: hemin 50 μg/ml, 24 hours
Method: as §1, §2, §3, §4

**Q.** How did the Cell Viability [1] turn out when hemin [Free hemin] was run?
**A.** Its Cell Viability is “did not significantly affected cell viability”.

**Q.** And the “cell viability (SRB)” value (NCI/ADR-Res; free hemin 25 μg/ml or drug-free HA-L 2 mM lipid, FIG. 15)?
**A.** The value was “intact”.

**Q.** What about the “Cell Viability” value (NCI/ADR-Res; hemin 25 μg/ml) of the same substance?
**A.** Its value is 120(±7) %.

**Q.** What about the “Cell Viability” value (NCI/ADR-Res; hemin 50 μg/ml) of the same substance?
**A.** Its value is 110(±6) %.

**Q.** What about the “M2 (anti-inflammatory) peritoneal macrophages” value (peritoneal macrophages; 2 mg hemin/kg body and/or 50 mg lipid/kg body, FIG. 8C) of the same substance?
**A.** Its value is 6.4±1.5%.

**Q.** And the “M2/M1, peritoneal macrophages” value (peritoneal macrophages; FIG. 8D)?
**A.** The value was 0.08±0.03.

**Q.** What about the “Cell Viability” value (MDA-MB-231; hemin 25 μg/ml) of the same substance?
**A.** The value was 92(±13) %.

**Q.** What about the “Cell Viability” value (MDA-MB-231; hemin 50 μg/ml) of the same substance?
**A.** The value was 91(±8) %.

**Q.** And the tumor volume (NAR xenografts)?
**A.** Its tumor volume is “slight decrease”.

**Q.** And the “intracellular levels of active HO-1” value (HO-1 [2])?
**A.** Its value is “small, but significant increase”.

**Q.** And the TNF-α secretion [3]?
**A.** Its TNF-α secretion is “no effect”.

**Q.** What about the TNF-α secretion ([3]; listed as free hemin) of the same substance?
**A.** Its TNF-α secretion is “high levels of TNF-α”.

**Q.** And the “HO-1 expression within macrophages” value (HO-1 [4])?
**A.** The value was “highest HO-1 expression”.

**Q.** What about the “Cell Viability” value (MCF-7; hemin 25 μg/ml) of the same substance?
**A.** The value was 104(±4) %.

**Q.** And the “Cell Viability” value (MCF-7; hemin 50 μg/ml)?
**A.** The value was 108(±5) %.

**Q.** What about the “reduction of infarct size (scar tissue) compared with saline” value [5] of the same substance?
**A.** Its value is 43%.

**Q.** What about the “Cell Viability” value (COS-7; hemin 25 μg/ml) of the same substance?
**A.** The value was 99(±3) %.

**Q.** What about the “Cell Viability” value (COS-7; hemin 50 μg/ml) of the same substance?
**A.** Its value is 91(±3) %.

**Q.** What about the “Cell Viability” value (RAW264.7) of the same substance?
**A.** Its value is 119(±17) %.
